In patent publication US20150105252A1, “SUBSTITUTED PYRAZOLES AS HERBICIDES” (E I DU PONT DE NEMOURS AND COMPANY, priority 2013, published 2015):

Experiments:
waterhemp = assay: Test C postemergence; type: in vivo, Amaranthus rudis; settings: postemergence, 250 g ai/ha; scale 0 to 100 (0 no effect, 100 complete control)
Outline: (§1)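 Visual control ratings on a 0–100 scale (100 = complete control) made against untreated controls after 13 to 15 days in greenhouse. Compounds applied in surfactant-containing solvent mixture, either preemergence to loam/sand-sown seeds or postemergence to 1- to 4-leaf plants (2–18 cm) in peat medium.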

galium = assay: Test C postemergence; type: in vivo, Galium aparine; settings: for Plant response rating (scale of 0 to 100 where 0 is no effect and 100 is complete control), Galium: Postemergence, 31 g ai/ha, visually evaluated after 13 to 15 days; for Galium plant response rating / Plant response rating, Galium: postemergence; for Galium plant response rating: 62 g ai/ha, scale 0 to 100
Outline: as §1

wheat = assay: Test C postemergence; type: in vivo, Triticum aestivum; settings: postemergence, 250 g ai/ha; scale 0 to 100 (0 no effect, 100 complete control)
Outline: as §1

oilseed rape = assay: Test C postemergence; type: in vivo, Brassica napus; settings: postemergence; for Oilseed Rape plant response rating: 62 g ai/ha, scale 0 to 100
Outline: as §1

lambsquarters [1] = assay: Test C postemergence; type: in vivo, Chenopodium album; settings: for Plant response rating (scale of 0 to 100 where 0 is no effect and 100 is complete control), Lambsquarters: Postemergence, 31 g ai/ha, visually evaluated after 13 to 15 days; for Lambsquarters plant response rating / Plant response rating, Lambsquarters: postemergence; for Lambsquarters plant response rating: 62 g ai/ha, scale 0 to 100
Outline: as §1

morningglory = assay: Test C postemergence; type: in vivo, Ipomoea coccinea; settings: for Plant response rating (scale of 0 to 100 where 0 is no effect and 100 is complete control), Morningglory: Postemergence, 31 g ai/ha, visually evaluated after 13 to 15 days; for Morningglory plant response rating / Plant response rating, Morningglory: postemergence; for Morningglory plant response rating: 62 g ai/ha, scale 0 to 100
Outline: as §1

pigweed = assay: Test C postemergence; type: in vivo, Amaranthus retroflexus; settings: postemergence; for Pigweed plant response rating: 62 g ai/ha, scale 0 to 100
Outline: as §1

velvetleaf = assay: Test C postemergence; type: in vivo, Abutilon theophrasti; settings: postemergence, 250 g ai/ha; scale 0 to 100 (0 no effect, 100 complete control)
Outline: as §1

ryegrass, Italian = assay: Test C postemergence; type: in vivo, Lolium multiflorum; settings: postemergence
Outline: as §1

lambsquarters [2] = assay: Test C preemergence; type: in vivo, Chenopodium album; settings: preemergence; for Plant response rating, Lambsquarters: 125 g ai/ha, scale 0 to 100, 0 = no effect, 100 = complete control
Outline: as §1

chickweed = assay: Test C postemergence; type: in vivo, Stellaria media; settings: for Plant response rating (scale of 0 to 100 where 0 is no effect and 100 is complete control), Chickweed: Postemergence, 31 g ai/ha, visually evaluated after 13 to 15 days; for Chickweed plant response rating / Plant response rating, Chickweed: postemergence; for Chickweed plant response rating: 62 g ai/ha, scale 0 to 100
Outline: as §1

foxtail, giant = assay: Test C postemergence; type: in vivo, Setaria faberii; settings: for Plant response rating (scale of 0 to 100 where 0 is no effect and 100 is complete control), Foxtail, Giant: Postemergence, 31 g ai/ha, visually evaluated after 13 to 15 days; for Foxtail, Giant plant response rating / Plant response rating, Foxtail, Giant: postemergence; for Foxtail, Giant plant response rating: 62 g ai/ha, scale 0 to 100
Outline: as §1

nutsedge, yellow = assay: Test C postemergence; type: in vivo, Cyperus esculentus; settings: for Plant response rating (scale of 0 to 100 where 0 is no effect and 100 is complete control), Nutsedge, Yellow: Postemergence, 31 g ai/ha, visually evaluated after 13 to 15 days; for Nutsedge, Yellow plant response rating / Plant response rating, Nutsedge, Yellow: postemergence; for Nutsedge, Yellow plant response rating: 62 g ai/ha, scale 0 to 100
Outline: as §1

corn = assay: Test C postemergence; type: in vivo, Zea mays; settings: for Plant response rating (scale of 0 to 100 where 0 is no effect and 100 is complete control), Corn: Postemergence, 31 g ai/ha, visually evaluated after 13 to 15 days; for Corn plant response rating / Plant response rating, Corn: postemergence; for Corn plant response rating: 62 g ai/ha, scale 0 to 100
Outline: as §1

soybean = assay: Test C postemergence; type: in vivo, Glycine max; settings: postemergence; for Plant response rating, Soybean: 250 g ai/ha, scale 0 to 100 (0 no effect, 100 complete control); for Soybean plant response rating: 125 g ai/ha, scale 0 to 100, 0 no effect, 100 complete control
Outline: as §1

johnsongrass = assay: Test C postemergence; type: in vivo, Sorghum halepense; settings: for Plant response rating (scale of 0 to 100 where 0 is no effect and 100 is complete control), Johnsongrass: Postemergence, 31 g ai/ha, visually evaluated after 13 to 15 days; for Johnsongrass plant response rating / Plant response rating, Johnsongrass: postemergence; for Johnsongrass plant response rating: 62 g ai/ha, scale 0 to 100
Outline: as §1

blackgrass = assay: Test C postemergence; type: in vivo, Alopecurus myosuroides; settings: for Plant response rating (scale of 0 to 100 where 0 is no effect and 100 is complete control), Blackgrass: Postemergence, 31 g ai/ha, visually evaluated after 13 to 15 days; for Blackgrass plant response rating / Plant response rating, Blackgrass: postemergence; for Blackgrass plant response rating: 62 g ai/ha, scale 0 to 100
Outline: as §1

kochia = assay: Test C postemergence; type: in vivo, Kochia scoparia; settings: for Plant response rating (scale of 0 to 100 where 0 is no effect and 100 is complete control), Kochia: Postemergence, 31 g ai/ha, visually evaluated after 13 to 15 days; for Kochia plant response rating / Plant response rating, Kochia: postemergence; for Kochia plant response rating: 62 g ai/ha, scale 0 to 100
Outline: as §1

[3] = 250 g ai/ha, scale 0 to 100 (0 no effect, 100 complete control)
[4] = 125 g ai/ha, scale 0 to 100, 0 no effect, 100 complete control
[5] = 31 g ai/ha, visual rating, scale 0 to 100 (0 no effect, 100 complete control), 13 to 15 days
[6] = 62 g ai/ha, scale 0 to 100 (0 no effect, 100 complete control), 13 to 15 days
[7] = 250 g ai/ha, scale 0 to 100, 0 is no effect, 100 is complete control

CCOc1cc(C(=O)NC2CC2)nn1Cc1ccnc(C(F)(F)F)c1 [Compound 189]
Plant response rating, Waterhemp (waterhemp): 90 | Plant response rating (scale of 0 to 100 where 0 is no effect and 100 is complete control), Galium (galium): 80 | Galium plant response rating (galium): 80 | Plant response rating, Galium (galium; [3]): 90 | Plant response rating, Galium (galium; [4]): 90 | Plant response rating, Wheat (wheat): 15 | Oilseed Rape plant response rating (oilseed rape): 60 | Plant response rating, Oilseed Rape (oilseed rape; [3]): 90 | Plant response rating, Oilseed Rape (oilseed rape; [4]): 65 | Plant response rating (scale of 0 to 100 where 0 is no effect and 100 is complete control), Lambsquarters (lambsquarters [1]): 60 | Lambsquarters plant response rating (lambsquarters [1]): 70 | Plant response rating, Lambsquarters (lambsquarters [1]; [3]): 85 | Plant response rating, Lambsquarters (lambsquarters [1]; [4]): 95 | Plant response rating (scale of 0 to 100 where 0 is no effect and 100 is complete control), Morningglory (morningglory): 75 | Morningglory plant response rating (morningglory): 80 | Plant response rating, Morningglory (morningglory; [3]): 98 | Plant response rating, Morningglory (morningglory; [4]): 95 | Pigweed plant response rating (pigweed): 75 | Plant response rating, Pigweed (pigweed; [3]): 90 | Plant response rating, Pigweed (pigweed; [4]): 85 | Plant response rating, Velvetleaf (velvetleaf): 75 | Plant response rating, Ryegrass, Italian (ryegrass, Italian; [3]): 40 | Plant response rating, Ryegrass, Italian (ryegrass, Italian; [4]): 5 | Lambsquarters plant response rating (lambsquarters [2]; [5]): 98 | Lambsquarters plant response rating (lambsquarters [2]; [6]): 100 | Plant response rating, Lambsquarters (lambsquarters [2]; 13 to 15 days): 100 | Lambsquarters plant response rating (lambsquarters [2]; [7]): 100 | Plant response rating (scale of 0 to 100 where 0 is no effect and 100 is complete control), Chickweed (chickweed): 80 | Chickweed plant response rating (chickweed): 80 | Plant response rating, Chickweed (chickweed; [3]): 90 | Plant response rating, Chickweed (chickweed; [4]): 85 | Plant response rating (scale of 0 to 100 where 0 is no effect and 100 is complete control), Foxtail, Giant (foxtail, giant): 10 | Foxtail, Giant plant response rating (foxtail, giant): 10 | Plant response rating, Foxtail, Giant (foxtail, giant; [3]): 75 | Plant response rating, Foxtail, Giant (foxtail, giant; [4]): 25 | Plant response rating (scale of 0 to 100 where 0 is no effect and 100 is complete control), Nutsedge, Yellow (nutsedge, yellow): 5 | Nutsedge, Yellow plant response rating (nutsedge, yellow): 5 | Plant response rating, Nutsedge, Yellow (nutsedge, yellow; [3]): 20 | Plant response rating, Nutsedge, Yellow (nutsedge, yellow; [4]): 5 | Plant response rating (scale of 0 to 100 where 0 is no effect and 100 is complete control), Corn (corn): 5 | Corn plant response rating (corn): 10 | Plant response rating, Corn (corn; [3]): 60 | Plant response rating, Corn (corn; [4]): 10 | Plant response rating, Soybean (soybean): 95 | Soybean plant response rating (soybean): 95 | Plant response rating (scale of 0 to 100 where 0 is no effect and 100 is complete control), Johnsongrass (johnsongrass): 0 | Johnsongrass plant response rating (johnsongrass): 15 | Plant response rating, Johnsongrass (johnsongrass; [3]): 35 | Plant response rating, Johnsongrass (johnsongrass; [4]): 5 | Plant response rating (scale of 0 to 100 where 0 is no effect and 100 is complete control), Blackgrass (blackgrass): 5 | Blackgrass plant response rating (blackgrass): 5 | Plant response rating, Blackgrass (blackgrass; [3]): 50 | Plant response rating, Blackgrass (blackgrass; [4]): 10 | Plant response rating (scale of 0 to 100 where 0 is no effect and 100 is complete control), Kochia (kochia): 85 | Kochia plant response rating (kochia): 90 | Plant response rating, Kochia (kochia; [3]): 90 | Plant response rating, Kochia (kochia; [4]): 90

CCc1cc(C(=O)NCC2CC2)nn1Cc1ccnc(C(F)(F)F)c1 [Compound 199]
Plant response rating, Waterhemp (waterhemp): 75 | Plant response rating (scale of 0 to 100 where 0 is no effect and 100 is complete control), Galium (galium): 60 | Galium plant response rating (galium): 70 | Plant response rating, Galium (galium; [3]): 90 | Plant response rating, Galium (galium; [4]): 80 | Plant response rating, Wheat (wheat): 5 | Oilseed Rape plant response rating (oilseed rape): 45 | Plant response rating, Oilseed Rape (oilseed rape; [3]): 65 | Plant response rating, Oilseed Rape (oilseed rape; [4]): 55 | Plant response rating (scale of 0 to 100 where 0 is no effect and 100 is complete control), Lambsquarters (lambsquarters [1]): 25 | Lambsquarters plant response rating (lambsquarters [1]): 85 | Plant response rating, Lambsquarters (lambsquarters [1]; [3]): 95 | Plant response rating, Lambsquarters (lambsquarters [1]; [4]): 70 | Plant response rating (scale of 0 to 100 where 0 is no effect and 100 is complete control), Morningglory (morningglory): 30 | Morningglory plant response rating (morningglory): 50 | Plant response rating, Morningglory (morningglory; [3]): 85 | Plant response rating, Morningglory (morningglory; [4]): 60 | Pigweed plant response rating (pigweed): 60 | Plant response rating, Pigweed (pigweed; [3]): 90 | Plant response rating, Pigweed (pigweed; [4]): 75 | Plant response rating, Velvetleaf (velvetleaf): 60 | Plant response rating, Ryegrass, Italian (ryegrass, Italian; [3]): 10 | Plant response rating, Ryegrass, Italian (ryegrass, Italian; [4]): 10 | Lambsquarters plant response rating (lambsquarters [2]; [5]): 95 | Lambsquarters plant response rating (lambsquarters [2]; [6]): 100 | Plant response rating, Lambsquarters (lambsquarters [2]; 13 to 15 days): 100 | Lambsquarters plant response rating (lambsquarters [2]; [7]): 98 | Plant response rating (scale of 0 to 100 where 0 is no effect and 100 is complete control), Chickweed (chickweed): 70 | Chickweed plant response rating (chickweed): 60 | Plant response rating, Chickweed (chickweed; [3]): 80 | Plant response rating, Chickweed (chickweed; [4]): 80 | Plant response rating (scale of 0 to 100 where 0 is no effect and 100 is complete control), Foxtail, Giant (foxtail, giant): 10 | Foxtail, Giant plant response rating (foxtail, giant): 10 | Plant response rating, Foxtail, Giant (foxtail, giant; [3]): 50 | Plant response rating, Foxtail, Giant (foxtail, giant; [4]): 50 | Plant response rating (scale of 0 to 100 where 0 is no effect and 100 is complete control), Nutsedge, Yellow (nutsedge, yellow): 5 | Nutsedge, Yellow plant response rating (nutsedge, yellow): 10 | Plant response rating, Nutsedge, Yellow (nutsedge, yellow; [3]): 20 | Plant response rating, Nutsedge, Yellow (nutsedge, yellow; [4]): 45 | Plant response rating (scale of 0 to 100 where 0 is no effect and 100 is complete control), Corn (corn): 5 | Corn plant response rating (corn): 10 | Plant response rating, Corn (corn; [3]): 65 | Plant response rating, Corn (corn; [4]): 85 | Plant response rating, Soybean (soybean): 95 | Soybean plant response rating (soybean): 75 | Plant response rating (scale of 0 to 100 where 0 is no effect and 100 is complete control), Johnsongrass (johnsongrass): 5 | Johnsongrass plant response rating (johnsongrass): 5 | Plant response rating, Johnsongrass (johnsongrass; [3]): 55 | Plant response rating, Johnsongrass (johnsongrass; [4]): 40 | Plant response rating (scale of 0 to 100 where 0 is no effect and 100 is complete control), Blackgrass (blackgrass): 0 | Blackgrass plant response rating (blackgrass): 10 | Plant response rating, Blackgrass (blackgrass; [3]): 30 | Plant response rating, Blackgrass (blackgrass; [4]): 10 | Plant response rating (scale of 0 to 100 where 0 is no effect and 100 is complete control), Kochia (kochia): 80 | Kochia plant response rating (kochia): 85 | Plant response rating, Kochia (kochia; [3]): 95 | Plant response rating, Kochia (kochia; [4]): 90
